# Assay results: US7592003B2, “Regulation of toll-like receptors on stem cells” (Oklahoma Medical Research Foundation, priority 2005, dated 2009)
# Assays:
# LKS^+ cells = test: Serum-free, stromal cell-free culture of sorted LKS+ cells, lineage markers by flow cytometry; type: cell-based, mouse
# Method: FIGS. 2A-D—Activation of TLRs through MyD88 on LKS^+ cells leads to myeloid cell differentiation. (FIG. 2A) Left, sorted LKS^+ cells (10,000 cells/well) from C57BL/6 or MyD88^−/− mice were cultured in the presence of FL and SCF with medium alone, LPS (10 μg/ml) or Pam3CSK4 (1 μg/ml). After 72 h in culture, cells were analyzed by flow cytometry for expression of lineage markers. Percentages indicate the frequencies of Lin^+ or Lin^− cells. Right, the bar graph depicts yields, i.e., numbers of Lin^+ cell recovered per input progenitor and the data represent mean values with standard deviations from triplicate cultures (*P<0.01). The results are representative of five independent experiments. […] After 72 or 96 h in culture, cells were analyzed by flow cytometry for Mac-1 and F4/80. […] After 72 h in culture, cells were analyzed by flow cytometry for expression of lineage markers. […]
# FIG. 11A-B—TLR stimulation causes a progression of Lin^+ cells from LKS^+ cells and soluble CD14 augments the acquisition of Mac-1 and F4/80. […] After 24 or 48 h in culture, cells were analyzed by flow cytometry for expression of lineage markers and percentages of Lin^+ or Lin^− cells are indicated. […] After 24, 48, or 72 h in culture, cells were analyzed by flow cytometry for expression of lineage markers. […] After 72 h in culture, cells were analyzed by flow cytometry for expression of Mac-1 and F4/80. […]
# GMP = test: Culture of sorted GMP for 72 h, morphology and Mac-1/F4/80 flow cytometry; type: cell-based, mouse
# Method: FIGS. 5A-C—TLR stimulation drives differentiation of GMP into F4/80^hi monocytes/macrophages. (FIG. 5A) These photomicrographs were prepared with Giemsa-May-Grünwald stained cytocentrifuged slides. ([…]) Sorted GMP were stimulated with LPS (1 μg/ml), Pam3CSK4 (100 ng/ml), M-CSF, or GM-CSF. After 72 h in culture, cells were analyzed by flow cytometry for expression of F4/80 and Mac-1. Percentages indicate the frequencies of Mac-1^lo F4/80^lo or Mac-1^hi F4/80^hi cells. CD86, Gr-1, or CD62L were analyzed by flow cytometry on Mac-1^hi F4/80^hi cells. Open histograms depict staining with the appropriate isotype matched Abs. The results are representative of those obtained in two independent experiments. (FIG. 5C) The bar graphs depict cell yields of Mac-1^lo F4/80^lo or Mac-1^hi F4/80^hi cells. The data represent mean values with standard deviations from triplicate cultures and are representative of three independent experiments.
# Serum-free, stromal cell-free cell cultures. Round-bottomed 96-well plates or flat-bottomed 24-well plates (Corning Inc.) were used for these cultures. […]
# Cell morphology. Cytospins of cultured progenitor cells were stained with Giemsa-May-Grünwald (Sigma Diagnostics, St. Louis, Mo.), mounted in Immersol (Zeiss, Thornwood, N.Y.), and analyzed on a Zeiss Axioplan 2i microscope with a 100×/1.4 NA Plan Achromat objective. […]
substance,measurement,setting,value
Pam3CSK4,Increase of absolute numbers of Lin+ cells,"LKS^+ cells; LKS+ cells with FL and SCF, within 72 h",approximately eight-fold
same,Increase of Lin+ cells with cells from MyD88-deficient mice,"LKS^+ cells; MyD88-deficient LKS+ cells, 72 h",did not occur
same,CD11b/Mac-1 expression of cells produced from GMP,GMP,Virtually all cells produced in response to LPS or Pam3CSK4 were CD11b/Mac-1^+
same,Morphology of recovered cells,"GMP; GMP, Giemsa-May-Grünwald",less homogeneous in appearance
